test system: voltage dependent calcium channels; type: cell-based, chick

Row | Compound | effect on voltage dependent calcium channels (maximum current induced by depolarizing voltage steps) | reversibility of effect (washout)
1 | COC(=O)C1=C(C)NC(C)=C([N+](=O)[O-])C1c1ccccc1C(F)(F)F (stereo not drawn) [Bay-k 8644] | stimulates L-type calcium channels | reversibly
2 | N=C(N)NC(=O)c1nc(Cl)c(N)nc1N [amiloride] | no effect on calcium ion channels | 
3 | O=C1NC(=O)C(c2ccccc2)(c2ccccc2)N1 [phenytoin] | no effect on calcium ion channels | 
4 | w-conotoxin MVIIA | high affinity for N-type calcium channels | irreversible

From patent US6470226B1 (priority 1997, dated 2002)
